This is an account of results in ChEMBL document CHEMBL1144817, “Mirabalin, [corrected] an antitumor macrolide lactam from the marine sponge Siliquariaspongia mirabilis” (J Nat Prod, 2008).

By IC50 is commonly meant the concentration that gives 50% inhibition.

One data set relates to HCT-116. The data set can be described thus: Antitumor activity against human HCT116 cells. It counts as functional, cell-based.
The next data set relates to Candida albicans. The data set can be described thus: Antimicrobial activity against Candida albicans. It is filed as functional, organism-based.
Data set [1] is described as follows: Antiproliferative activity against green monkey kidney cells. The following applies: chlorocebus aethiops. It counts as cell-based.

SMILES strings stand for the structures. The source made the active and inactive calls. The rule behind the calls is not given here.

With `CO[C@@H]1[C@@H]2O[C@H](C[C@@H](O)[C@H](C)[C@@H](O)/C(C)=C/[C@H](C)[C@H](O)/C=C/CC(O)CC(C(NC(=O)CC(C)CCC(C)C(O)/C(C)=C/C(C)[C@@H](O)[C@H](NC(=O)/C=C/C(C)(C)C(=O)[C@@H](C)[C@@H](O)C(C)C)[C@@H](O)C(C)C)C(C)O)OC(=O)C(C(O)C(=O)O)NC(=O)/C=C/C=C/C=C/C=C/C=C/[C@H]2OC)C[C@@H]1C` (stereo partly drawn) [MIRABILIN MACROLIDE LACTUM], the concentration for half-maximal inhibition (IC50) with HCT-116 was 270 nM. Moreover, in the data set on Candida albicans, the outcome was inactive. Moreover, in data set [1], the Activity result is listed as “Not Active”.
